Results reported in PubChem BioAssay AID1963870 (Molecular Pharmacology Branch, DTP, NCI, 2024).

System: 292921-168-R-J2-PDC KRAS tumor spheroid viability
Experiment: Anticancer human tumor 292921-168-R-J2-PDC patient-derived pancreatic carcinoma cell line growth inhibition [KRAS2]
Conditions: spheroids with HUVEC and MSC; for IC50: curve of first compound; for viability, T/C: stronger effect = lower value
In short: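 KRAS-mutant tumor cells were grown as spheroids with HUVEC endothelial cells and human MSCs as stroma. Targeted agents were tested alone and with KRAS pathway inhibitors. Doses started at or near clinical Cmax, or 10 microM, descending half-log.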

[1] = second compound 0.1 µM, first compound 0.0316 µM
[2] = second compound 0.1 µM, first compound 0.1 µM
[3] = second compound 0.1 µM, first compound 0.316 µM
[4] = second compound 0.1 µM, first compound 1 µM
[5] = second compound 0.1 µM, first compound 3.16 µM
[6] = second compound 0.1 µM, first compound 10 µM
[7] = second compound 0.316 µM, first compound 0.0316 µM
[8] = second compound 0.316 µM, first compound 0.1 µM
[9] = second compound 0.316 µM, first compound 0.316 µM
[10] = second compound 0.316 µM, first compound 1 µM
[11] = second compound 0.316 µM, first compound 3.16 µM
[12] = second compound 0.316 µM, first compound 10 µM
[13] = second compound 1 µM, first compound 0.0316 µM
[14] = second compound 1 µM, first compound 0.1 µM
[15] = second compound 1 µM, first compound 0.316 µM
[16] = second compound 1 µM, first compound 1 µM
[17] = second compound 1 µM, first compound 3.16 µM
[18] = second compound 1 µM, first compound 10 µM
[19] = second compound 3.16 µM, first compound 0.0316 µM
[20] = second compound 3.16 µM, first compound 0.1 µM
[21] = second compound 3.16 µM, first compound 0.316 µM
[22] = second compound 3.16 µM, first compound 1 µM
[23] = second compound 3.16 µM, first compound 3.16 µM
[24] = second compound 3.16 µM, first compound 10 µM
[25] = second compound 10 µM, first compound 0.0316 µM
[26] = second compound 10 µM, first compound 0.1 µM
[27] = second compound 10 µM, first compound 0.316 µM
[28] = second compound 10 µM, first compound 1 µM
[29] = second compound 10 µM, first compound 3.16 µM
[30] = second compound 10 µM, first compound 10 µM
[31] = second compound 0.1 µM, first compound 0.01 µM
[32] = second compound 0.316 µM, first compound 0.01 µM
[33] = second compound 1 µM, first compound 0.01 µM
[34] = second compound 3.16 µM, first compound 0.01 µM
[35] = second compound 10 µM, first compound 0.01 µM
[36] = second compound 0.1 µM, first compound 0.00316 µM
[37] = second compound 0.316 µM, first compound 0.00316 µM
[38] = second compound 1 µM, first compound 0.00316 µM
[39] = second compound 3.16 µM, first compound 0.00316 µM
[40] = second compound 10 µM, first compound 0.00316 µM
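Also: drug exposure lasted seven days after spheroids formed for three days.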
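For viability, T/C in this document: percent of DMSO vehicle control viability which is 100%.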

Row | SMILES | IC50 (second compound 0.1 µM) [nM] | IC50 (second compound 0.316 µM) [nM] | IC50 (second compound 1 µM) [nM] | IC50 (second compound 3.16 µM) [nM] | IC50 (second compound 10 µM) [nM] | viability, T/C [1] [%] | viability, T/C [2] [%] | viability, T/C [3] [%] | viability, T/C [4] [%] | viability, T/C [7] [%] | viability, T/C [8] [%] | viability, T/C [9] [%] | viability, T/C [10] [%] | viability, T/C [13] [%] | viability, T/C [14] [%] | viability, T/C [15] [%] | viability, T/C [19] [%] | viability, T/C [20] [%] | viability, T/C [25] [%] | viability, T/C [26] [%] | further results
1 | CC(C)NCC(C(=O)N1CCN(c2ncnc3c2C(C)CC3O)CC1)c1ccc(Cl)cc1 (stereo not given) + C=CC(=O)N1CCN(c2nc(=O)n(-c3c(C)ccnc3C(C)C)c3nc(-c4c(O)cccc4F)c(F)cc23)C(C)C1 | > 10000 | > 10000 | 6050 | 1640 | < 31.6 | 95.3 | 91.2 | 88.1 | 86.3 | 96.3 | 96.2 | 85.7 | 81.1 | 92.7 | 82.3 | 76.1 | 51.9 | 63.9 | 18.6 | 22.1 | viability, T/C [5]: 79.4%; viability, T/C [6]: 50.9%; viability, T/C [11]: 67.4%; viability, T/C [12]: 52.7%; viability, T/C [16]: 75.8%; viability, T/C [17]: 63.8%; viability, T/C [18]: 39.8%; viability, T/C [21]: 58.7%; viability, T/C [22]: 53.1%; viability, T/C [23]: 44.4%; viability, T/C [24]: 25.9%; viability, T/C [27]: 17.8%; viability, T/C [28]: 15.3%; viability, T/C [29]: 18.3%; viability, T/C [30]: 11.8%
2 | CC1COCCN1c1cc(-c2ccnn2C)c2ccnc(-c3ccn[nH]3)c2n1 (stereo not given) + C=CC(=O)N1CCN(c2nc(=O)n(-c3c(C)ccnc3C(C)C)c3nc(-c4c(O)cccc4F)c(F)cc23)C(C)C1 | < 10 | < 10 | < 10 | < 10 | < 10 | 19.9 | 15 | 13.6 | 16.1 | 20.1 | 13.5 | 14.6 | 17.5 | 16.8 | 12.9 | 15.5 | 12 | 12.4 | 12.7 | 14.7 | viability, T/C [31]: 41.9%; viability, T/C [5]: 18.3%; viability, T/C [32]: 32.8%; viability, T/C [11]: 20%; viability, T/C [33]: 30.3%; viability, T/C [16]: 18.7%; viability, T/C [17]: 23.2%; viability, T/C [34]: 17.1%; viability, T/C [21]: 16.8%; viability, T/C [22]: 21.8%; viability, T/C [23]: 24.1%; viability, T/C [35]: 12.1%; viability, T/C [27]: 19.1%; viability, T/C [28]: 21.3%; viability, T/C [29]: 24.8%
3 | CCN1CCN(Cc2ccc(Nc3ncc(F)c(-c4cc(F)c5nc(C)n(C(C)C)c5c4)n3)nc2)CC1 + C=CC(=O)N1CCN(c2nc(=O)n(-c3c(C)ccnc3C(C)C)c3nc(-c4c(O)cccc4F)c(F)cc23)C(C)C1 | 58.1 | 85.6 | 108 | 11.3 | < 3.16 | 54.4 | 45.6 | 30.5 | 22.1 | 64.4 | 47.6 | 35.3 | 26.7 | 66.2 | 50.4 | 37.2 | 45 | 34.6 | 23.7 | 22.9 | viability, T/C [36]: 95%; viability, T/C [31]: 78%; viability, T/C [37]: 95.7%; viability, T/C [32]: 82.4%; viability, T/C [38]: 96.8%; viability, T/C [33]: 82%; viability, T/C [16]: 22.6%; viability, T/C [39]: 57.7%; viability, T/C [34]: 50%; viability, T/C [21]: 28.9%; viability, T/C [22]: 21.2%; viability, T/C [40]: 18.5%; viability, T/C [35]: 23.9%; viability, T/C [27]: 20.4%; viability, T/C [28]: 6.06%
4 | CCNC(=O)CC1N=C(c2ccc(Cl)cc2)c2cc(OC)ccc2-n2c(C)nnc21 (stereo not given) + C=CC(=O)N1CCN(c2nc(=O)n(-c3c(C)ccnc3C(C)C)c3nc(-c4c(O)cccc4F)c(F)cc23)C(C)C1 | 6090 | 6080 | 4240 | 530 | < 31.6 | 111 | 104 | 77.2 | 63.1 | 117 | 103 | 81.1 | 68.8 | 109 | 97 | 77.6 | 78.2 | 69.1 | 29.1 | 26.2 | viability, T/C [5]: 60.7%; viability, T/C [6]: 43.4%; viability, T/C [11]: 63%; viability, T/C [12]: 41.5%; viability, T/C [16]: 65.4%; viability, T/C [17]: 54.8%; viability, T/C [18]: 40.7%; viability, T/C [21]: 53.1%; viability, T/C [22]: 43.8%; viability, T/C [23]: 35.6%; viability, T/C [24]: 26.4%; viability, T/C [27]: 23.8%; viability, T/C [28]: 16.8%; viability, T/C [29]: 9.64%; viability, T/C [30]: 6.83%
5 | Cn1ncnc1[C@H]1c2n[nH]c(=O)c3cc(F)cc(c23)N[C@@H]1c1ccc(F)cc1 + C=CC(=O)N1CCN(c2nc(=O)n(-c3c(C)ccnc3C(C)C)c3nc(-c4c(O)cccc4F)c(F)cc23)C(C)C1 | > 100 | > 100 | > 100 | 89.7 | < 0.316 | 87.5 | 78.5 |  |  | 97.7 | 88.4 |  |  | 83.2 | 73.3 |  | 54.3 | 49.2 | 21.3 | 18.6 | viability, T/C (second compound 0.1 µM, first compound 0.000316 µM): 103%; viability, T/C (second compound 0.1 µM, first compound 0.001 µM): 104%; viability, T/C [36]: 105%; viability, T/C [31]: 103%; viability, T/C (second compound 0.316 µM, first compound 0.000316 µM): 113%; viability, T/C (second compound 0.316 µM, first compound 0.001 µM): 109%; viability, T/C [37]: 105%; viability, T/C [32]: 97.6%; viability, T/C (second compound 1 µM, first compound 0.000316 µM): 106%; viability, T/C (second compound 1 µM, first compound 0.001 µM): 97.3%; viability, T/C [38]: 94.9%; viability, T/C [33]: 94.8%; viability, T/C (second compound 3.16 µM, first compound 0.000316 µM): 74.3%; viability, T/C (second compound 3.16 µM, first compound 0.001 µM): 64.2%; viability, T/C [39]: 65.1%; viability, T/C [34]: 65.3%; viability, T/C (second compound 10 µM, first compound 0.000316 µM): 18.7%; viability, T/C (second compound 10 µM, first compound 0.001 µM): 20.8%; viability, T/C [40]: 20.6%; viability, T/C [35]: 21.9%
